Reference: patent US10336735B2, “Small molecule inhibitors of fibrosis” (THE CALIFORNIA INSTITUTE FOR BIOMEDICAL RESEARCH, priority 2014, dated 2019)

System: primary human lung fibroblasts and primary rodent HSCs
Test: High content imaging assay (α-SMA staining, cell morphology) of fibroblast to myofibroblast transdifferentiation, confirmed by Western blot and RT-PCR
Conditions: Homo sapiens, Fibroblast; imaging and western based activity
Outline: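 Primary human lung fibroblasts and primary rodent HSCs were serum-starved and then TGF-β-treated to drive transdifferentiation in 384-well format, with SB-431542 as positive control. Readouts were α-SMA immunofluorescence and cell morphology by high-content imaging, confirmed by Western blot and RT-PCR in 4-day, 4-point dose-response assays; EC50 values are graded.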

First: N#Cc1cc(OC[C@H]2CO[C@](Cn3nccn3)(c3ccccc3)C2)ccc1N1CCN(c2ccc(-n3cnn(CC4CCCC4)c3=O)cc2)CC1 [Compound 146]
Second: N#Cc1cc(OC[C@@H]2CO[C@@](Cn3nccn3)(c3ccccc3)O2)ccc1N1CCN(c2ccc(-n3cnn(CC4CCCC4)c3=O)cc2)CC1 [Compound 156]
The EC50 of the first is higher: over 30000 nM for the first, 500 to 5000 nM for the second. The second is the more potent here.

CCC(C)n1ncn(-c2ccc(N3CCN(c4ccc(OC[C@H]5CO[C@](Cn6nccn6)(c6ccccc6)C5)cc4)CC3)cc2)c1=O (stereo partly shown) [Compound 147] and CCC(C)n1ncn(-c2ccc(N3CCN(c4ccc(OC[C@H]5CO[C@](Cn6nccn6)(c6ccccc6)C5)cc4F)CC3)cc2)c1=O (stereo partly shown) [Compound 148] cannot be ordered by EC50: over 30000 nM for the first, over 30000 nM for the second.

Compared with CCC(C)n1ncn(-c2ccc(N3CCN(c4ccc(OC[C@H]5CO[C@](Cn6nccn6)(c6ccccc6)C5)cc4C#N)CC3)cc2)c1=O (stereo partly shown) [Compound 149], CCC(CC)n1ncn(-c2ccc(N3CCN(c4ccc(OC[C@@H]5CO[C@@](Cn6nccn6)(c6ccccc6)O5)cc4C#N)CC3)cc2)c1=O [Compound 155] is lower in EC50: over 30000 nM for the first, under 500 nM for the second. The second is the more potent here.

Going from CCC(C)n1cnn(-c2ccc(N3CCN(c4ccc(OC[C@@H]5CO[C@@](Cc6ccccc6)(c6ccccc6)O5)cc4)CC3)cc2)c1=O (stereo partly shown) [Compound 150] to CC[C@H](C)n1ncn(-c2ccc(N3CCN(c4ccc(OC[C@@H]5CO[C@@](Cn6cccn6)(c6ccccc6)O5)cc4)CC3)cc2)c1=O [Compound 168], the EC50 falls from over 30000 nM to under 500 nM. The second is the more potent here.

First: CC1(CCn2ncn(-c3ccc(N4CCN(c5ccc(OC[C@@H]6CO[C@@](Cn7cncn7)(c7ccc(Br)cc7)O6)cc5)CC4)cc3)c2=O)N=N1 [Compound 151]
Second: CCC(CC)n1ncn(-c2ccc(N3CCN(c4ccc(OC[C@@H]5CO[C@@](Cn6cccn6)(c6ccccc6)O5)cc4)CC3)cc2)c1=O [Compound 166]
The EC50 of the first is higher: 500 to 5000 nM for the first, under 500 nM for the second. The second is the more potent here.

First: CCC(CC)n1ncn(-c2ccc(N3CCN(c4ccc(OC[C@@H]5CO[C@@](Cn6nccn6)(c6ccc(Cl)cc6Cl)O5)cc4C#N)CC3)cc2)c1=O [Compound 152]
Second: CCC(CC)n1ncn(-c2ccc(N3CCN(c4ccc(OC[C@@H]5CO[C@@](Cn6nccn6)(c6ccc(Cl)cc6Cl)O5)cc4F)CC3)cc2)c1=O [Compound 164]
The EC50 of the first is higher: 5000 to 30000 nM for the first, under 500 nM for the second.

O=c1n(-c2ccc(N3CCN(c4ccc(OC[C@@H]5CO[C@@](Cn6nccn6)(c6ccc(Cl)cc6Cl)O5)cc4F)CC3)cc2)cnn1CC1CCCC1 [Compound 154] and O=c1n(-c2ccc(N3CCN(c4ccc(OC[C@H]5CO[C@](Cn6nccn6)(c6ccc(Cl)cc6Cl)O5)cc4F)CC3)cc2)cnn1CC1CCCC1 [Compound 163] cannot be ordered by EC50: under 500 nM for the first, under 500 nM for the second.

O=c1n(-c2ccc(N3CCN(c4ccc(OC[C@@H]5CO[C@@](Cn6nccn6)(c6ccccc6)O5)cc4F)CC3)cc2)cnn1CC1CCCC1 [Compound 157] and CCC(CC)n1ncn(-c2ccc(N3CCN(c4ccc(OC[C@H]5CO[C@](Cn6nccn6)(c6ccccc6)O5)cc4)CC3)cc2)c1=O [Compound 160] cannot be ordered by EC50: under 500 nM for the first, under 500 nM for the second.

CCC(CC)n1ncn(-c2ccc(N3CCN(c4ccc(OC[C@@H]5CO[C@@](Cn6nccn6)(c6ccccc6)O5)cc4)CC3)cc2)c1=O [Compound 161] and CCC(CC)n1ncn(-c2ccc(N3CCN(c4ccc(OC[C@H]5CO[C@](Cn6cccn6)(c6ccccc6)O5)cc4)CC3)cc2)c1=O [Compound 167] cannot be ordered by EC50: under 500 nM for the first, under 500 nM for the second.

CCC(CC)n1ncn(-c2ccc(N3CCN(c4ccc(OC[C@H]5CO[C@](Cn6nccn6)(c6ccc(Cl)cc6Cl)O5)cc4F)CC3)cc2)c1=O [Compound 165] and CC[C@@H](C)n1ncn(-c2ccc(N3CCN(c4ccc(OC[C@@H]5CO[C@@](Cn6cccn6)(c6ccccc6)O5)cc4)CC3)cc2)c1=O [Compound 169] cannot be ordered by EC50: under 500 nM for the first, under 500 nM for the second.

CC[C@H](C)n1ncn(-c2ccc(N3CCN(c4ccc(OC[C@H]5CO[C@](Cn6cccn6)(c6ccccc6)O5)cc4)CC3)cc2)c1=O [Compound 170] and CC[C@@H](C)n1ncn(-c2ccc(N3CCN(c4ccc(OC[C@H]5CO[C@](Cn6cccn6)(c6ccccc6)O5)cc4)CC3)cc2)c1=O [Compound 171] cannot be ordered by EC50: under 500 nM for the first, under 500 nM for the second.
